According to the supplement of paper PMC11451515:

Test system: SEM cells
Assay: cell viability relative to DMSO control; higher = less cytotoxic
Details: 48 h
How it was run: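 NOMO1 or SEM (500 cells/well) or P12-Ichikawa (1000 cells/well) leukemia cells were adapted for at least four passages in each medium. They were seeded in 1536-well plates (5 μl) and pin-dosed with library compounds in DMSO over an 11-point threefold series, 47 μM to 0.79 nM. CellTiter-Glo One luminescence was read after 48 h at 37°C. Viability is the per-plate percentage relative to DMSO wells, with cell-free wells as background.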

[1] = HPLM + 10% dialyzed FBS, 0.000781 µM
[2] = HPLM + 10% dialyzed FBS, 0.00234 µM
[3] = HPLM + 10% dialyzed FBS, 0.00702 µM
[4] = HPLM + 10% dialyzed FBS, 0.0211 µM
[5] = HPLM + 10% dialyzed FBS, 0.0632 µM
[6] = HPLM + 10% dialyzed FBS, 0.19 µM
[7] = HPLM + 10% dialyzed FBS, 0.569 µM
[8] = HPLM + 10% dialyzed FBS, 1.71 µM
[9] = HPLM + 10% dialyzed FBS, 5.12 µM
[10] = HPLM + 10% dialyzed FBS, 15.4 µM
[11] = HPLM + 10% dialyzed FBS, 46.1 µM
[12] = RPMI 5 mM glucose + 10% FBS, 0.000781 µM
[13] = RPMI 5 mM glucose + 10% FBS, 0.00234 µM
[14] = RPMI 5 mM glucose + 10% FBS, 0.00702 µM
[15] = RPMI 5 mM glucose + 10% FBS, 0.0211 µM
[16] = RPMI 5 mM glucose + 10% FBS, 0.0632 µM
[17] = RPMI 5 mM glucose + 10% FBS, 0.19 µM
[18] = RPMI 5 mM glucose + 10% FBS, 0.569 µM
[19] = RPMI 5 mM glucose + 10% FBS, 1.71 µM
[20] = RPMI 5 mM glucose + 10% FBS, 5.12 µM
[21] = RPMI 5 mM glucose + 10% FBS, 15.4 µM
[22] = RPMI 5 mM glucose + 10% FBS, 46.1 µM
[23] = RPMI 5 mM glucose + 10% dialyzed FBS, 0.000781 µM
[24] = RPMI 5 mM glucose + 10% dialyzed FBS, 0.00234 µM
[25] = RPMI 5 mM glucose + 10% dialyzed FBS, 0.00702 µM
[26] = RPMI 5 mM glucose + 10% dialyzed FBS, 0.0211 µM
[27] = RPMI 5 mM glucose + 10% dialyzed FBS, 0.0632 µM
[28] = RPMI 5 mM glucose + 10% dialyzed FBS, 0.19 µM
[29] = RPMI 5 mM glucose + 10% dialyzed FBS, 0.569 µM
[30] = RPMI 5 mM glucose + 10% dialyzed FBS, 1.71 µM
[31] = RPMI 5 mM glucose + 10% dialyzed FBS, 5.12 µM
[32] = RPMI 5 mM glucose + 10% dialyzed FBS, 15.4 µM
[33] = RPMI 5 mM glucose + 10% dialyzed FBS, 46.1 µM

Compound	cell viability [1] [%]	cell viability [2] [%]	cell viability [3] [%]	cell viability [4] [%]	cell viability [5] [%]	cell viability [6] [%]	cell viability [7] [%]	cell viability [8] [%]	cell viability [9] [%]	cell viability [10] [%]	cell viability [11] [%]	cell viability [12] [%]	cell viability [13] [%]	cell viability [14] [%]	cell viability [15] [%]	cell viability [16] [%]	cell viability [17] [%]	cell viability [18] [%]	cell viability [19] [%]	cell viability [20] [%]	cell viability [21] [%]	cell viability [22] [%]	cell viability [23] [%]	cell viability [24] [%]	cell viability [25] [%]	cell viability [26] [%]	cell viability [27] [%]	cell viability [28] [%]	cell viability [29] [%]	cell viability [30] [%]	cell viability [31] [%]	cell viability [32] [%]	cell viability [33] [%]
C[C@@H]1CC[C@@]2(CC[C@]3(C)\C(=C/C[C@@H]4[C@@]5(C)CC[C@H](O)C(C)(C)[C@@H]5CC[C@@]34C)[C@@H]2[C@H]1C)C(O)=O	85.6	109	111	110	112	116	123	122	108	117	121	105	101	108	96.2	113	123	109	99.2	102	114	61.6	107	116	114	111	112	118	118	136	129	118	110
CC(=O)OC[C@@H]1O[C@H]([C@H](OC(C)=O)[C@@H]1OC(C)=O)N2\C=C/C(=O)NC2=O																							118	109	137	119	114	143	113	112	122	108	93.9
C[C@]1(O)CC(C1)C2=NC(=C3[N]2C=CN=C3N)C4=CC5=C(C=C4)C=CC(=N5)C6=CC=CC=C6 (stereo not given)	77.3	81.7	87.6	90.4	87.1	67.6	76	47.2	26.5	3.17	2.38	95.8	96.8	105	103	105	66.4	68.8	42.2	16.6	3.06	1.58	77.7	67.5	80.7	84	87.2	55.8	72.5	42.7	24.3	3.02	1.93
COC1=CC=C(C=C1)/C2=C(O)/C(=O)C3=C(O)C=C(O)C(=C3O2)CC=C(C)C	104	95.9	98.8	114	122	111	109	118	107	97.8	120	86.7	86.2	90.8	85.6	95.2	100	93.4	92	94.1	80.4	95.2	105	103	115	115	120	113	124	118	125	121	108
